For one compound, morphological changes, IC50 and cellular localization results are on record in paper PMC12383145, “Fluorescent Peptides Internalize HeLa Cells and Kill Multidrug-Resistant Clinical Bacterial Isolates” (Antibiotics, 2025).

The structures appear in SMILES notation. “And” between values parts separate entries of the source, which are not always exact repeats. Equal entries are not always repeated. Residues, ends and D or L forms follow the SMILES beside them. *: point of attachment. RhodamineB = CCN(CC)c1ccc2c(-c3ccccc3C(=O)*)c3ccc(=[N+](CC)CC)cc-3oc2c1

For orientation: IC50 means the midpoint of a concentration-inhibition curve. Lower therefore signals higher potency.

Format in all cases: cell-based
Data set [1] concerns HeLa cells. In words: Micrographs of cell morphology after peptide treatment. The note with it: 100 µg/mL, 2 h, 37 °C. The source says: Despite these pronounced morphological alterations, there was no evidence of cell rupture, membrane disintegration, or the presence of cell fragments, indicating the absence of necrotic processes. […] Green arrows indicate normal morphologies, such as cytoplasmic elongations and polygonal shapes. Red arrows indicate morphological changes induced by the peptides, including cell rounding, shrinkage, and loss of cytoplasmic projections. Scale bar: µm. The control corresponds to untreated cells.

Data set [2] in a line: MTT cytotoxicity assay in HeLa cells.
Data set [3] relates to HeLa cells. In words: Fluorescence confocal microscopy, colocalization analysis (ImageJ JaCoP). As to conditions: 2 h at IC50, colocalization with SMA antibody. The method, then:
The possible cellular distribution of the peptides was determined by colocalization analysis of the Rhodamine B fluorescent signal, with fluorophores used to stain the nucleus (Hoechst 33342) and cytoplasm components (SMA antibody). ImageJ 1.54f analysis software and the JaCoP plugin were used to analyze signal colocalization.
HeLa cells (>70% confluence) were seeded on sterile round coverslips in 24-well plates with DMEM + 5% FBS and incubated at 37 °C, 5% CO2 for 24 h. After adhesion, the medium was replaced, and cells were treated with fluorescent peptides at their IC50 for 2 h. Then, cells were washed with PBS under constant stirring (3 × 10 min). Cellular fixation was performed using a solution containing 2% paraformaldehyde and 1% sucrose 100 mM in PBS for 30 min, followed by PBS washes (2 × 10 min). Permeabilization was carried out using a solution of 0.1% Triton X-100 and 20 mM glycine in PBS for 10 min, followed by two additional PBS washes. Blocking was performed with 1% BSA and 20 mM glycine in PBS for 10 min. […] For the fluorescence lecture, 5 µL of Fluoromount mounting medium was applied to the slide, and the coverslip containing the cells was inverted onto the medium. Slides were allowed to be dry-protected from light, and cells were visualized using a Leica DMi8 fluorescence confocal microscope. […]

Turning to `CCN(CC)c1ccc2c(-c3ccccc3C(=O)N[C@@H](CCCNC(=N)N)C(=O)N[C@@H](Cc3c[nH]c4ccccc34)C(=O)N[C@@H](CCC(N)=O)C(=O)N[C@@H](Cc3c[nH]c4ccccc34)C(=O)N[C@@H](CCCNC(=N)N)C(=O)N[C@@H](Cc3c[nH]c4ccccc34)C(=O)N[C@@H](CCC(N)=O)C(=O)N[C@@H](Cc3c[nH]c4ccccc34)C(=O)N[C@@H](CCCNC(=N)N)C(N)=O)c3ccc(=[N+](CC)CC)cc-3oc2c1` [RhB-1, RhB-RWQWRWQWR] (RhodamineB-RWQWRWQWR-NH2), the morphological changes result with HeLa cells [1] was “appeared smaller, rounded, and contained vacuoles”. Besides, in data set [2], the IC50 was 117 µg/mL and 61 µM. Moreover, the cellular localization entry in the data set with HeLa cells [3] was “internalized and distributed in the cytoplasm”.
